Laboratory results from the supplement of paper PMC10307832.

Key:
Assay in all cases: relative viability (nuclei count vs DMSO), 5 days (fraction); higher = more cells survive
[1] = compound: CN[C@@H]1C[C@H]2O[C@@](C)([C@@H]1OC)n1c3ccccc3c3c4c(c5c6ccccc6n2c5c31)C(=O)NC4 [Staurosporine] + C[C@@H](Oc1cc(-c2cnn(C3CCNCC3)c2)cnc1N)c1c(Cl)ccc(F)c1Cl [Crizotinib] (partner 1 µM)
Procedure, shortened: (§1)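 Lung cancer cell lines in 1536-well plates were dosed by pin tool the day after seeding, either with one drug alone or with a fixed anchor-drug dose plus five library-drug doses (not always all listed) in √10 steps. After 5 days, cells were fixed and their nuclei stained in one step (final 0.05% Triton X-100, 1% formaldehyde, 1 ug/ml Hoechst), then counted on 4× images. Relative viability is the nuclei count in treated wells divided by that in vehicle wells. Values are medians of duplicate plates.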

[2] = compound: CN[C@@H]1C[C@H]2O[C@@](C)([C@@H]1OC)n1c3ccccc3c3c4c(c5c6ccccc6n2c5c31)C(=O)NC4 [Staurosporine] + Cc1nc(NC(=O)N2CCC[C@H]2C(N)=O)sc1-c1ccnc(C(C)(C)C(F)(F)F)c1 [Alpelisib] (partner 2 µM)
Procedure, shortened: as §1

[3] = compound: CC1=C(CC(=O)O)c2cc(F)ccc2/C1=C\c1ccc([S+](C)[O-])cc1 [Sulindac] + Cc1nc(NC(=O)N2CCC[C@H]2C(N)=O)sc1-c1ccnc(C(C)(C)C(F)(F)F)c1 [Alpelisib] (partner 2 µM)
Procedure, shortened: as §1

[4] = compound: O=c1[nH]cc(F)c(=O)[nH]1 [5-Fluorouracil] + Cc1nc(NC(=O)N2CCC[C@H]2C(N)=O)sc1-c1ccnc(C(C)(C)C(F)(F)F)c1 [Alpelisib] (partner 2 µM)
Procedure, shortened: as §1

Cell Line | relative viability ([1]; first compound 0.005 µM) | relative viability ([1]; first compound 0.01581 µM) | relative viability ([1]; first compound 0.05 µM) | relative viability ([1]; first compound 0.1581 µM) | relative viability ([1]; first compound 0.5 µM) | relative viability ([2]; first compound 0.005 µM) | relative viability ([2]; first compound 0.01581 µM) | relative viability ([2]; first compound 0.05 µM) | relative viability ([2]; first compound 0.1581 µM) | relative viability ([2]; first compound 0.5 µM) | relative viability ([3]; first compound 0.08 µM) | relative viability ([3]; first compound 0.253 µM) | relative viability ([3]; first compound 0.8 µM) | relative viability ([3]; first compound 2.53 µM) | relative viability ([3]; first compound 8 µM) | relative viability ([4]; first compound 0.02 µM) | relative viability ([4]; first compound 0.2 µM) | relative viability ([4]; first compound 0.6325 µM) | relative viability ([4]; first compound 2 µM)
HCC-78 | 0.358 | 0.236 | 0.244 | 0.261 | 0.239 | 0.394 | 0.305 | 0.241 | 0.281 | 0.237 | 0.353 | 0.387 | 0.352 | 0.27 | 0.374 | 0.242 | 0.281 | 0.235 | –
HCC-366 | 0.972 | – | 0.171 | 0.0224 | 0.0156 | 0.363 | – | 0.0965 | 0.0438 | 0.0105 | 0.527 | 0.471 | 0.407 | 0.527 | 0.622 | 0.227 | 0.466 | 0.182 | 0.0921
HCC-827 | 0.927 | 0.803 | 0.583 | 0.575 | 0.442 | 1.1 | 0.852 | 0.748 | – | 0.431 | 0.985 | 0.979 | 0.839 | 0.943 | 1.11 | 0.777 | 0.888 | 0.681 | 0.451
HOP-62 | 1.02 | 0.741 | 0.134 | 0.144 | 0.0781 | 1.25 | 0.816 | 0.115 | 0.0862 | 0.138 | 1.15 | 0.994 | 0.842 | 0.963 | 1.21 | 0.835 | 1.03 | 0.844 | 0.754
IA-LM | 0.253 | 0.073 | 0.319 | 0.148 | 0.0488 | 0.577 | – | 0.281 | 0.211 | 0.0757 | 0.825 | 0.955 | – | 0.977 | 1.13 | 0.682 | 0.37 | 0.175 | 0.182
LC-2-ad | 0.442 | 0.368 | 0.266 | 0.167 | 0.116 | 0.178 | 0.338 | 0.237 | 0.0434 | 0.0442 | 0.886 | 0.913 | 0.86 | 0.917 | 0.974 | 0.878 | 0.884 | 0.514 | 0.339
LCLC-97TM1 | 0.277 | 0.24 | 0.234 | 0.296 | 0.257 | 0.205 | 0.18 | 0.166 | 0.185 | 0.179 | 0.272 | 0.278 | 0.238 | – | 0.236 | 0.205 | 0.224 | 0.208 | 0.161
LCLC-103H | 1.1 | 0.741 | 0.564 | 0.318 | 0.258 | 1.07 | 0.513 | 0.365 | 0.221 | 0.178 | 1.06 | 1.07 | 0.892 | 0.869 | 1.09 | 0.984 | 0.983 | 0.699 | 0.403
LK-2 | 0.18 | 0.16 | 0.129 | 0.0689 | 0.0939 | 1.24 | 1.18 | 0.451 | 0.191 | 0.0868 | 1.42 | 1.14 | – | – | 1.38 | 1.3 | 0.606 | 0.803 | 0.578
LOU-NH91 | 0.721 | 0.594 | 0.493 | 0.413 | 0.325 | 0.718 | 0.575 | 0.457 | 0.304 | 0.305 | 0.711 | 0.7 | 0.636 | 0.745 | 0.808 | 0.679 | 0.706 | 0.57 | 0.466
LU99A | 0.391 | 0.308 | 0.253 | 0.157 | 0.118 | 0.341 | 0.153 | 0.19 | 0.105 | 0.118 | 0.468 | 0.564 | 0.455 | 0.498 | 0.596 | 0.495 | 0.566 | 0.47 | 0.353
LXF-289 | 0.751 | – | 0.258 | 0.0796 | 0.0672 | 0.902 | – | 0.197 | 0.0563 | 0.0673 | 1.1 | 1.05 | 1.02 | 1.13 | 1.06 | 1.03 | 0.595 | 0.353 | 0.286
NCI-H23 | 0.296 | 0.234 | 0.193 | 0.176 | 0.125 | 0.437 | 0.317 | 0.218 | 0.206 | 0.131 | 0.763 | 0.78 | 0.636 | 0.658 | 0.859 | 0.687 | 0.728 | 0.425 | 0.312
NCI-H322M | 0.98 | 0.666 | 0.654 | 0.558 | 0.433 | 0.74 | 0.723 | 0.725 | 0.446 | 0.328 | 0.644 | 0.777 | 0.652 | 0.848 | 0.928 | 0.772 | 0.785 | 0.609 | 0.5
NCI-H358 | 0.386 | 0.225 | 0.106 | 0.116 | 0.0764 | 0.553 | 0.222 | 0.19 | 0.144 | 0.161 | 1.01 | 0.878 | 0.684 | 0.808 | 1.1 | 0.935 | 0.817 | 1.04 | 0.434
NCI-H1395 | – | – | – | – | – | 1.05 | 0.474 | 0.366 | 0.498 | 0.271 | 0.948 | 1.05 | 0.975 | 0.973 | 1.08 | 1.1 | 1.02 | 1.14 | 0.844
NCI-H1650 | 0.537 | 0.389 | 0.242 | 0.197 | 0.106 | – | – | – | – | – | – | – | – | – | – | – | – | – | –
NCI-H1793 | – | – | – | – | – | 0.774 | 0.506 | 0.593 | 0.383 | 0.179 | 0.744 | 0.78 | 0.587 | 0.857 | 0.804 | 0.673 | 0.658 | 0.543 | 0.493
